“Also recorded” adds a separate entry of the source.
Legend:
Type in all cases: in vivo, mouse
[1] = tested on: HFSCs; assay: Metabolomic analysis (LC-MS) of lactate in HFSCs sorted from topically treated skin
Description: (§1) Animals were acquired from Jackson Labs (K15-CrePR, Lgr5-CreER and Lgr6-CreER), Rutter Lab (Mpc^fl/fl) and Seth Lab (Ldha^fl/fl) (Xie, H. et al., Cell Metab., 19, 795-809 (2014)) and maintained under conditions set forth by IUCUC and ARC. For experiments that include analysis of the telogen stage of the hair cycle, animals were harvested at post-natal day 50, for telogen-anagen transition animals were harvested at day 70, and for anagen animals were harvested at post-natal day 90. For experiments that include analysis of transgenic animals, K15-CrePR animals were shaved and treated by intraperitoneal injections of mifepristone and Lgr5-CreER and Lgr6-CreER animals were shaved and treated with tamoxifen (10 mg/ml dissolved in sunflower seed oil, 2 mg per day for 3 days) during telogen (post-natal day 50), and monitored for hair regrowth following shaving. Phenotypes shown from treated animals were produced 3-4 weeks after mifepristone administration. […]
Whole dorsal and ventral mouse skin were excised and floated on trypsin (0.25%) for 1 h at 37° C. or overnight at 4° C. […] The cells were then filtered through a […] cell strainer and stained for fluorescence-activated cell sorting (FACS) processing with CD34 Monoclonal Antibody (RAM34), FITC, eBioscience™ (Catalog #:11-0341-82) and CD49d (Integrin alpha 4) Monoclonal Antibody (R1-2), PE, eBioscience™ (Catalog #: 12-0492-81). […]

[2] = tested on: Ldh; assay: In situ Ldh enzyme activity assay in epidermis of topically treated animals; conditions: in situ stain
Description: as §1, with “administration. For FIG. 3, wildtype C57BL/6J animals were shaved at post-natal day 50 and treated topically with Transderma PLO Gel ([…] lecithin organogel), PLO Gel Ultramax Base (TR220) (vehicle), or the compound of formula (I) (Compound (I)) (20 μM) (Sigma Aldrich product PZ0160) for indicated periods of time.” for “administration.”

[3] = tested on: 17 month old mice; assay: Treatment of elderly (17 month old) shaved mice, hair coat re-growth; conditions: 20 uM in PLO gel every other day, up to 30 days after shaving; DMSO control patchy
Protocol: 17 month old mice were shaved and treated every other day with DMSO or 20 uM of the compound of formula (I) diluted in PLO gel (pluronic lecithin organogel). Images were acquired at the indicated day after shaving and carried out for 30 days.

[4] = tested on: wildtype C57BL/6J animals; assay: Topical treatment of shaved telogen (day 50) mice, monitoring pigmentation, hair growth and hair cycle
Description: Animals were acquired from Jackson Labs (K15-CrePR, Lgr5-CreER and Lgr6-CreER), Rutter Lab (Mpc^fl/fl) and Seth Lab (Ldha^fl/fl) (Xie, H. et al., Cell Metab., 19, 795-809 (2014)) and maintained under conditions set forth by IUCUC and ARC. For experiments that include analysis of the telogen stage of the hair cycle, animals were harvested at post-natal day 50, for telogen-anagen transition animals were harvested at day 70, and for anagen animals were harvested at post-natal day 90. For experiments that include analysis of transgenic animals, K15-CrePR animals were shaved and treated by intraperitoneal injections of mifepristone and Lgr5-CreER and Lgr6-CreER animals were shaved and treated with tamoxifen (10 mg/ml dissolved in sunflower seed oil, 2 mg per day for 3 days) during telogen (post-natal day 50), and monitored for hair regrowth following shaving. Phenotypes shown from treated animals were produced 3-4 weeks after mifepristone administration. For FIG. 3, wildtype C57BL/6J animals were shaved at post-natal day 50 and treated topically with Transderma PLO Gel ([…] lecithin organogel), PLO Gel Ultramax Base (TR220) (vehicle), or the compound of formula (I) (Compound (I)) (20 μM) (Sigma Aldrich product PZ0160) for indicated periods of time. Both male and female animals were used in this study in approximately equal numbers with no apparent difference in phenotype between genders. All phenotypes described are representative of a minimum of n=3 littermate pairs as indicated in the description of each experiment. No statistical measure was used to determine the sample size beforehand, nor were statistics used to measure effects, as the results were essentially positive or negative as represented in the figures. The results described include data from all treated animals. The investigators were not blinded to allocation during the experimental data collection, nor were the experiments randomized. The results shown were representative images from at least three independently treated animals, and genotyping was performed both before and after animal treatment for confirmation.
Tissues were isolated from the indicated genotypes and embedded fresh in optimal cutting temperature (OCT) compound for frozen tissue preparations, or fixed overnight in 4% formalin and embedded in paraffin. For frozen tissue, sectioning was performed on a Leica 3200 Cryostat, and fixed for 5 minutes in 4% paraformaldehyde. Paraffin embedded tissue was sectioned, de-paraffinized, and prepared for histology. All sections prepared for staining were blocked in staining buffer containing appropriate control IgG (Goat, Rabbit etc.). Immunohistochemistry was performed on formalin-fixed paraffin-embedded tissue with citrate or Tris buffer antigen retrieval with the following antibodies: Ki67 (Abcam ab16667, 1:50), p-S6 (Cell Signaling CST2215, 1:50), Sox9 (Abcam ab185230, 1:1000), Ldha (Abcam ab47010, 1:100), Ldh (Abcam ab125683, 1:100), p-Stat3 (Abcam ab68153, 1:200), p-Stat1 (Abcam ab109461, 1:200), p-Stat5 (Abcam ab32364; 1:50), Gli3 (Abcam ab6050; 1:100), β-catenin (Abcam ab32572; 1:500). The DAKO EnVision+ HRP Peroxidase System (Dako K400911-2) and Dako AEC Substrate Chromogen (Dako K346430-2) was used for detection. Images were collected on an Olympus BX43 Upright Microscope and Zeiss Model Axio Imager M1 Upright Fluorescence Microscope. Protein samples for western blots and enzymatic assays were extracted from FACS sorted epidermal populations in RIPA lysis buffer (Pierce) with Halt protease and phosphatase inhibitors (Thermo-Fisher) and precipitated in acetone for concentration. The following antibodies were used: β-actin (Abcam ab8227; 1:1000), β-actin (Santa Cruz sc-47778; 1:1000), C-Myc (Abcam ab32072; 1:1000), N-Myc (Santa Cruz sc-53993; 1:200), H3K27Ac (Abcam ab177178; 1:200), Mpc1 (Sigma HPA045119).
Both male and female animals were used in this study in approximately equal numbers with no apparent difference in phenotype between genders. […]

[5] = topical treatment of animals in telogen (day 50)

N#CC(=Cc1cn(-c2ccccc2)c2ccccc12)C(=O)O [compound of formula (I)]
lactate levels, replicate experiment ([1]; 48-72 hours of treatment): increase in lactate levels
total levels of lactate in sorted HFSCs ([1]; topical application, 48 hours): increases total levels of lactate
Ldh enzyme activity in interfollicular epidermis ([2]; topical application for 48 hours during telogen): increased Ldh activity in the interfollicular epidermis; also recorded: also seen in interfollicular epidermis
Ldh enzyme activity in HFSCs ([2]; topically treated animals): strong activity in HFSCs
hair coat re-growth in aged mice [3]: more complete re-growth; also recorded: more complete hair growth
effect on proliferation of the interfollicular epidermis [4, 5]: minor hyperproliferation of the interfollicular epidermis
effect on the hair cycle [4, 5]: robust acceleration of the hair cycle
time of treatment to full anagen, indicated by full coat of hair ([4]; topical, 20 μM): 14 days
skin pathology: anagen entry (down growth of the follicle and hypodermal thickening) ([4]; topical, 20 μM, vehicle animals remained in telogen): entered an accelerated anagen at 8 weeks
time of treatment to pigmentation and hair growth, indicative of entry into anagen ([4]; topical, 20 μM, vehicle control showed none even after 12 days): 8 days
time to beginning of hair cycle acceleration (time to observed phenotype) ([4]; topical, at least 6 pairs of animals, vehicle vs compound): 3 to 5 days

— patent US11213513B2, “Compositions and methods for promoting hair growth with Mpc1 inhibitors” (The Regents of the University of California, priority 2017, dated 2022)
